Measurements taken from the NIST ThermoML archive (doi:10.1021/je700020t).
± gives the expanded uncertainty stated by the source.

Details: 101.33 kPa, Liquid

Structure (SMILES)	mass density (253.15 K) [kg/m3]	mass density (263.15 K) [kg/m3]	mass density (273.15 K) [kg/m3]	mass density (283.15 K) [kg/m3]	mass density (293.15 K) [kg/m3]	mass density (324.15 K) [kg/m3]	mass density (343.15 K) [kg/m3]	mass density (358.15 K) [kg/m3]	mass density (298.15 K) [kg/m3]	mass density (323.15 K) [kg/m3]	mass density (363.15 K) [kg/m3]	mass density (383.15 K) [kg/m3]
CCCI [1-iodopropane]	1820.9 ± 1.8	1802.5 ± 1.7	1784.5 ± 1.7	1765.9 ± 1.6	1747.8 ± 1.5	1688.3 ± 1.6	1652.2 ± 1.6	1622.3 ± 1.7	–	–	–	–
CCCCI [1-iodobutane]	1670.9 ± 3.3	1655.2 ± 3.2	1639.1 ± 3.1	1623.7 ± 3	1607.6 ± 2.9	–	1525.7 ± 2.9	–	1599.8 ± 2.9	1558.7 ± 2.9	1492 ± 2.9	1457.2 ± 2.9
